row,Structure (SMILES),melting point
1,Cc1[nH]cc2c(=O)n(-c3ccc(Cl)cc3)nc-2c1-c1cccc(-c2cccnc2)c1,312 to 318 °C
2,c1ccc(NCc2nccc(-c3ccc(-c4ccc(N(c5ccccc5)c5ccccc5)cc4)cc3)n2)cc1,200 to 201 °C
3,N#CNC(=NCCO[N+](=O)[O-])c1ccc(N)nc1,108 °C
4,COC(=O)CC1CCN(C(=O)N2CCC(c3ccc(C#N)cc3)CC2)CC1,115 to 118 °C
5,OCCc1c(-c2ccccc2)[nH]c2nccnc12,201 to 202 °C
6,COc1ccc(-c2noc3ccsc23)cc1,93 to 94 °C
7,C=C(Cl)CNC(=S)SCc1ccccc1,46 to 48 °C
8,O=C(O)COCCCCN(c1cnc(-c2ccccc2)c(-c2ccccc2)n1)C1CCCC1,101 to 103 °C
9,CC(C)(C)OC(=O)N[C@@H](Cc1ccccc1)[C@H]1CO1,126 °C
10,CC(=O)Nc1ccc(N2CCNC2=O)cc1,270 to 273 °C
11,CC(=O)OCC1OC(n2c(Br)c(C#N)c3cc(Cl)c(Cl)cc32)C(O)C1O (stereo unspecified),103 to 105 °C
12,COc1ccc(-c2nc(N)sc2CCN2CC=C(c3ccccc3)CC2)cc1,163 °C
13,Oc1ccc(-c2nc(-c3ccc(F)cc3)c(-c3ccncc3)[nH]2)cc1,214 to 215 °C
14,COc1cc2nc(N3CCC(=O)CC3)nc(N)c2cc1OC,228 to 230 °C
15,COc1ccc(NC(=O)c2ccc([N+](=O)[O-])cc2NC(=O)c2ccc(C(C)(C)C)cc2)cc1,221 °C
16,CS(=O)c1cc(CCC(=O)OC(C)(C)C)cc(-c2nc(=O)c3ccccc3s2)n1 (stereo unspecified),220 °C
17,COc1ccc2c(c1)CCc1c-2n(-c2ccccc2)c2ncccc2c1=O,234 to 238 °C
18,CN(c1cccc2cc(C(N)=O)[nH]c12)S(=O)(=O)c1ccccc1C(F)(F)F,223 to 224 °C
19,CS(=O)(=O)c1cc2c(c(C=O)c1O)CCC2,152 to 153 °C
20,CC(=O)Nc1ccc(Oc2c(-c3ccc(S(C)(=O)=O)cc3)cnn(CC(F)(F)F)c2=O)cc1,215 to 216 °C
21,CC12CCC(OS(=O)(=O)C(F)(F)F)=CC1=CCC1C2CCC2(C)C(C(=O)N(C(=S)NC3CCCCC3)C3CCCCC3)CCC12 (stereo unspecified),123 to 124 °C
22,CN(C)c1ncc(-c2ccc(Cl)cc2Cl)c(N)n1,151 °C
23,CC(C(=O)O)c1cccc(S(=O)(=O)c2ccccc2Cl)c1O (stereo unspecified),180 to 181 °C
24,CCCCCCCCc1ccc(C(=O)Cc2cccc(C(=O)O)c2)cc1,103 to 110 °C
25,CC(C)(C)OC(=O)N1CCC[C@@H]1C=C(Br)Br,55 to 60 °C
26,Cc1ccc(C(C(=O)C(C)C)c2ccc(C)cc2)cc1,48 to 51 °C

row,Structure (SMILES),melting point
1,NS(=O)(=O)c1ccccc1C1=NOCCO1,131 to 133 °C
2,NS(=O)(=O)c1ccc(-c2nc(-c3ncn4c(C(F)(F)F)cc(-c5ccc(C(F)(F)F)cc5)nc34)no2)cc1,303 °C
3,Cn1c(=O)c2c(ncn2CCCN2CCN(c3nccnc3Cl)CC2)n(C)c1=O,205 to 207 °C
4,O=C1CCCCC1Oc1ccc(-c2c(-c3ccccc3)nn3ccccc23)nn1 (stereo unspecified),214 to 216 °C
5,O=c1c(-c2ccc[nH]2)coc2ccccc12,134 to 135 °C
6,COc1c2c(c(OC)c(OC)c1OC)CCC(CCn1cnc3ccccc31)CC2,121 to 123 °C
7,Cc1ccc2c(c1)C(=O)CCC21CCC(=O)N(C)C1=O (stereo unspecified),146 to 148 °C
8,O=C(Nc1ccc2[nH]ncc2c1)O[C@@H](c1cccc(C(F)(F)F)c1)[C@@H]1CCCCN1,190 °C
9,CC(O)(c1nc2ccc(S(=O)(=O)c3ccccc3)cc2c(=O)[nH]1)C(F)(F)F (stereo unspecified),202 to 204 °C
10,Cc1ccc(C(C)N(O)C(=O)c2ccc(S(C)(=O)=O)cc2)o1 (stereo unspecified),177 °C
11,CC(=O)Nc1ccc(S(N)(=O)=O)cc1[N+](=O)[O-],182 to 183 °C
12,CCOC(=O)COc1cc(-c2nn(C)c(C(F)(F)F)c2Cl)c(F)cc1Cl,130 to 131 °C
13,CCOC(=O)CCCn1c(Nc2cnc(N(C)C)cc2C)nc2c(Cl)ccc(C(CC)CC)c21,158 to 159 °C
14,COc1ccc(CC(=O)NC(NC(=NC#N)Nc2cc(C)ccc2C)C(C)(C)C)cc1OC (stereo unspecified),93 to 94 °C
15,COc1cc(CC(C)(C)C(=O)O)cc2c1OC(C)(C)C2,88 to 89 °C
16,Cc1oc(-c2ccccc2)nc1COc1ccc(Cn2cc(C=O)c(-c3cccs3)n2)cc1,136 to 137 °C
17,COc1cccc(-c2c(C3CCN(C)CC3)[nH]c(=O)c3ccccc23)c1,181 to 183 °C
18,O=C(O)COc1ccc2c(=O)c3ccc(Cl)cc3oc2c1Cl,270 °C
19,Cc1ccc2sc3nncn3c2c1C,226 to 228 °C
20,CCCCNC(=O)NS(=O)(=O)c1cccc2c1OC(C)(C)C2,200 to 203 °C
21,Fc1ccc(-c2ncn(CCCCN3CCOCC3)c2-c2ccncc2)cc1,103 to 104 °C
22,CCCCc1nc(Sc2ccccc2)c(CO)n1Cc1ccc(-c2ccccc2C(=O)O)cc1,215 °C
23,O=C(C=Cc1ccco1)c1cnc2sc3c(n12)CCCCC3,161 to 162 °C
24,CS(=O)(=O)OCCC(CCOS(C)(=O)=O)C(F)(F)F,40 to 45 °C
25,Cc1cccc2nnc(-c3ccccc3)c(Cl)c12,128 °C
26,Cc1cn(C2CCCCC2)c(=O)nc1NS(=O)(=O)c1ccc(N)cc1,203 to 206 °C

row,Structure (SMILES),melting point
1,CC(NC(=O)Cc1cc(F)cc(F)c1)C(=O)NC1C(=O)NC(C)c2ccccc21 (stereo unspecified),205 to 206 °C
2,COC=C(C(=O)OC)N(C)N1CSC(Br)=C1c1ccc(Br)cc1,112 °C
3,COc1ccccc1C=CC=C(CC(N)C(=O)O)C(=O)O (stereo unspecified),187 to 189 °C
4,O=C(Nc1cccc(OC2OC(CO)C(O)C2O)c1)C(F)(F)F (stereo unspecified),133 to 135 °C
5,COC(=O)C(C#N)CC(=O)c1ccc(Cl)cc1 (stereo unspecified),75 to 79 °C
6,O=C(c1cccn1N1C(=O)c2ccccc2C1=O)C1CC1,150 to 152 °C
7,CCOC(=O)CCc1ccc(OCc2ccc(Cn3nc(C(C)(C)C)cc3C(C)(C)C)cc2)cc1F,73 to 74 °C
8,Oc1ccc(N2CCN(CC[C@H]3CC[C@H](Nc4ncccn4)CC3)CC2)cc1,192 to 194 °C
9,CCOC(=O)c1c(NCC(=O)c2ccccc2Cc2ccccc2)c2c(Cl)cc(Cl)cc2n1C(=O)OC(C)(C)C,163 °C
10,Cc1ccn(-c2ccc(C(=O)O)c(Cl)c2)n1,192 to 193 °C
11,CS(=O)c1ccc(Oc2ccc(Cl)c(Cl)c2)cc1 (stereo unspecified),92 to 93.5 °C
12,CN(C)c1ccc(-c2nc(Cl)c3ccccc3n2)cc1,167 to 170 °C
13,COC(=O)c1ccc(-c2nc(-c3ccc(OC(F)(F)F)cc3)cs2)cc1,138 to 139 °C
14,CC(C)(C)C(=O)N(O)Cc1ccccc1Cl,100 to 102 °C
15,Cc1cc2c(-c3cccc(C(F)(F)F)c3)nc(Cl)nc2s1,108 °C
16,Cc1c(C)c2c(c(C)c1N)CC(C)(CN1CCC(NC(c3ccc(F)cc3)c3ccc(F)cc3)CC1)O2 (stereo unspecified),133 to 134 °C
17,Cc1nc(C(=O)NCCN(C)C)c2n1-c1ccc(Cl)cc1C(c1ccccc1F)=NC2,209 to 211 °C
18,COC(=O)COc1ccc(C(=O)CNC(=O)c2ccc(C#N)cc2)cc1,200 to 203 °C
19,COc1ccc(-c2ccncc2)cc1-c1cccc([N+](=O)[O-])c1,145 to 150 °C
20,Clc1cccc(Nc2ncnc3[nH]nc(N4CCOCC4)c23)c1,275 to 276 °C
21,CC1(C)CC(=O)c2cc(OCc3ccccc3)ccc2O1,105 to 107 °C
22,CN(C)Cc1ccc(C(=O)CCC(=O)N2CCN(c3ccc(N4C[C@H](CNC(=S)C5CC5)OC4=O)cc3F)CC2)cc1,174 to 175 °C
23,CC(=O)OC1C(C)OC(Sc2ccccc2)C(OCc2ccccc2)C1OC(C)=O (stereo unspecified),124 °C
24,O=C(O)c1[nH]c(=O)c2ccccc2c1-c1ccccc1,> 300 °C
25,COc1ccc(C(=O)Nc2ccccc2)cc1NCc1cccc(O)c1,168 to 170 °C
26,COC(=O)c1cc(-c2cccc(C(F)(F)F)c2)ns1,82 to 83 °C

row,Structure (SMILES),melting point
1,Cc1nn(CC(F)(F)COC(=O)CN)c(-c2ccc(F)cc2)c1-c1ccc2c(c1)NC(=O)CO2,142 to 146 °C
2,COC(=O)C(CS)NC(=O)CNC(=O)CS (stereo unspecified),67 to 69 °C
3,CCC12CC3CC(CC(C)(C3)C1)C2,< 80 °C
4,Cc1cccc2c1CCC2NC(=S)NCCO (stereo unspecified),90 to 93 °C
5,COC(=O)c1c(C(=O)OC)c(-c2ccccc2)n2c1Cc1ccccc1-2,149 to 151 °C
6,CCCCOc1cc(=O)n(CCCC)c2ccccc12,50 to 52 °C
7,CC1(C)CC(=O)Nc2ccc(Br)cc21,176 to 179 °C
8,COc1ccc(C2=NN(Cc3ccccc3)C(=O)[C@H]3CCCC[C@@H]23)cc1OC1CCCC1 (relative stereo),91 to 92 °C
9,Cc1nnc(-c2ccc3occ(-c4ccc(C(F)(F)F)cc4)c3c2)o1,190 to 191 °C
10,CCOC(=O)Cc1ccc(NC(=O)C(CCc2ccccc2)NS(=O)(=O)c2ccc(Br)cc2)cc1 (racemic),130 to 131 °C
11,Cc1nc(-c2ccccc2)sc1CNC(=O)c1ccnc(N2CCN(Cc3ccc(F)cc3)C2=O)c1,182 to 184 °C
12,CSc1ccc(C(C)C)c(NC(=O)CN2CCN(CCSc3nc4ccccc4o3)CC2)c1C(C)C,148 to 150 °C
13,CCOC(=O)c1cn2c(-c3ccccc3)cccc2n1,123 to 124 °C
14,CN1CCC2(CC1)c1ccccc1C(C)(O)c1c(O)cccc12 (stereo unspecified),151 to 154 °C
15,BrCc1ccc2c(c1)CCO2,57 to 60 °C
16,NC(=O)NC1CCC(Cl)CC1 (stereo unspecified),177 to 178 °C
17,O=C(CC1CCN(Cc2ccccc2)CC1)c1ccc(N2CCCC2)cc1,110 to 112 °C
18,Clc1ccc2c(c1)C(NC1=NCCS1)CCC2 (stereo unspecified),164 to 166 °C
19,CC(C)(C)OC(=O)Nn1c(=O)cc2n(C3CC3)c3cc(N4CCN(C(=O)OC(C)(C)C)CC4)c(F)cc3n2c1=O,219 to 220 °C
20,O=C(NC(=O)C(c1ccccc1)c1ccccc1)OCCCc1ccncc1,147 to 150 °C
21,O=c1nc(-c2ccccn2)sc2cc(Cl)ccc12,245 to 246 °C
22,Cc1nnc(-c2ccc3occ(-c4ccccc4C)c3c2)o1,83 to 84 °C
23,C#CC(C)(C)c1cc(N)no1,98 to 100 °C

# — a melting point compilation (Tetko et al.; mined from patent text by program, amines drawn as free bases though some values may be those of a salt)
